# Tested on: HBV
# Experiment: Non protein-associated RC and CCC HBV DNA in HBV baculovirus infected HepG2 cells (Southern blot)
# Assay type: cell-based, hepatitis B virus
# Settings: for non protein-associated RC HBV DNA, % Untreated Control: 50 pfu/cell
# Procedure: On the indicated days (3, 6, and 9 days of drug treatment) HBV replication in HepG2 cultures was assessed by examining extracellular HBV DNA and intracellular replicative intermediates.
# (T). […] Relaxed circular (RC) and covalently closed circular (CCC) HBV DNA is indicated. […] A conclusion from these studies is that the HBV baculovirus-HepG2 system can be used to complement other in vitro model systems currently used for testing antiviral compounds.
# HepG2 cells were seeded at approximately 20% to 40% confluency and then were grown for 16 to 24 hours before infection. On the day of infection, duplicate plates of cells were trypsinized, and viable cell number was determined with a hemocytometer using Trypan blue exclusion. Average cell counts were calculated and used to determine the volume of high-titer viral stock necessary to infect cells at the indicated moi. Baculovirus was diluted into MEM-FBS to achieve the appropriate moi using volumes of 1.0 and 0.25 mL to infect 100-mm and 35-mm dishes, respectively. Baculovirus was adsorbed to HepG2 cells for one hour at 37° C. with gentle rocking every 15 minutes to ensure that the inoculum was evenly distributed. The inoculum was then aspirated and HepG2 cells were washed two times with phosphate-buffered saline and refed MEM-FBS.
# Nonprotein-bound circular HBV genomes were extracted from HepG2 cells after infection by a high salt extraction of low molecular weight DNA followed by a phenol and chloroform extraction. Nucleic acids were resuspended in 50 μL of water and normalized by OD260. All samples were treated with 100 μg/mL RNase and 30 U of Plasmid-Safe ATP-Dependent DNase (Epicenter Technologies, Madison, Wis.). After a two-hour incubation at 37° C., Plasmid-Safe DNase was heat inactivated at 65° C. according to the manufacturer's instructions. Each sample was separated into two aliquots and one aliquot was digested with Xhol for one hour at 37° C. Samples were analyzed by electrophoresis and Southern blotting.
# 3TC was a gift of BioChem Therapeutic Inc. (Laval, Quebec, Canada). […] Medium containing 3TC was prepared daily as needed using fresh aliquots of 3TC.
compound,measurement,setting,value
"Nc1ccn([C@@H]2CS[C@H](CO)O2)c(=O)n1 [3TC, (−)-2′-dideoxy-3′-thiacytidine]","non protein-associated RC HBV DNA, % Untreated Control","0.02 μM 3TC, P (from 16 h prior to infection), day 4 p.i. (3 days treatment)",60.9 % Untreated Control
same,"non protein-associated RC HBV DNA, % Untreated Control","0.02 μM 3TC, P (from 16 h prior to infection), day 7 p.i. (6 days treatment)",45.2 % Untreated Control
same,"non protein-associated RC HBV DNA, % Untreated Control","0.02 μM 3TC, T (from 24 h p.i.), day 4 p.i. (3 days treatment)",48.8 % Untreated Control
same,"non protein-associated RC HBV DNA, % Untreated Control","0.02 μM 3TC, T (from 24 h p.i.), day 7 p.i. (6 days treatment)",40.2 % Untreated Control
same,"non protein-associated RC HBV DNA, % Untreated Control","0.2 μM 3TC, P (from 16 h prior to infection), day 4 p.i. (3 days treatment)",8.6 % Untreated Control
same,"non protein-associated RC HBV DNA, % Untreated Control","0.2 μM 3TC, P (from 16 h prior to infection), day 7 p.i. (6 days treatment)",10.5 % Untreated Control
same,"non protein-associated RC HBV DNA, % Untreated Control","0.2 μM 3TC, T (from 24 h p.i.), day 4 p.i. (3 days treatment)",17.3 % Untreated Control
same,"non protein-associated RC HBV DNA, % Untreated Control","0.2 μM 3TC, T (from 24 h p.i.), day 7 p.i. (6 days treatment)",10.9 % Untreated Control
same,"non protein-associated RC HBV DNA, % Untreated Control","2.0 μM 3TC, P (from 16 h prior to infection), day 4 p.i. (3 days treatment)",3.2 % Untreated Control
same,"non protein-associated RC HBV DNA, % Untreated Control","2.0 μM 3TC, P (from 16 h prior to infection), day 7 p.i. (6 days treatment)",5.6 % Untreated Control
same,"non protein-associated RC HBV DNA, % Untreated Control","2.0 μM 3TC, T (from 24 h p.i.), day 4 p.i. (3 days treatment)",6.8 % Untreated Control
same,"non protein-associated RC HBV DNA, % Untreated Control","2.0 μM 3TC, T (from 24 h p.i.), day 7 p.i. (6 days treatment)",6.7 % Untreated Control
same,inhibition at 2 µM,"Hepatitis B virus, HepG2, read-out: inhibition of non protein-associated RC HBV DNA production",> 90%
